Assay results: PMC9126592, “sp^2-Iminosugars targeting human lysosomal β-hexosaminidase as pharmacological chaperone candidates for late-onset Tay-Sachs disease” (Journal of Enzyme Inhibition and Medicinal Chemistry, 2022)

Key:
Format in all cases: biochemical
[1] = molecular target: T1, recombinant human O-GlcNAcase (hOGA) (Homo sapiens, UniProt O60502); assay: Inhibition of recombinant human O-GlcNAcase (resorufin N-acetyl-β-D-glucosaminide); conditions: for Ki: recombinant human O-GlcNAcase, read-out: Ki OGA
T1 construct: the N-terminal region of hOGA, comprising amino acids 11–396; the C-terminal region, comprising amino acids 535–715; His6 (N); His6 followed by 3C-protease cleavage site (N); made in house; host or cells: E. coli Bl21(DE3)-Gold
T1 sequence (O60502 11-396): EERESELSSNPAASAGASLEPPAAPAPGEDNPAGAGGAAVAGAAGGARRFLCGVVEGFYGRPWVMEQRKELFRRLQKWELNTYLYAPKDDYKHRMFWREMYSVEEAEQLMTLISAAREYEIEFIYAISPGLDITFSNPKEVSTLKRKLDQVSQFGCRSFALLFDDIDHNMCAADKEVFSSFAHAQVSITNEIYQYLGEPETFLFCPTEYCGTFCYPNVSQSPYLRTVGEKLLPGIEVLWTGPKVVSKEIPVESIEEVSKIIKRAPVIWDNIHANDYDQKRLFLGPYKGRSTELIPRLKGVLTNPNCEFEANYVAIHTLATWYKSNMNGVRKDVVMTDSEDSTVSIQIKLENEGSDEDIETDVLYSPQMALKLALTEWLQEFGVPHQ
T1 sequence (O60502 535-715): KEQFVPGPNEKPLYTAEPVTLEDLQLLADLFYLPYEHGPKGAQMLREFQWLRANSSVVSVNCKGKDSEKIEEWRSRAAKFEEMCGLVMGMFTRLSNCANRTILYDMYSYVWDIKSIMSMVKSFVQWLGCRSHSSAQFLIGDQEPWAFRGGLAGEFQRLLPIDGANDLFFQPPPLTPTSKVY
Description: The gene of the longest isoform of hOGA (hOGA-L; Uniprot Accession number: O60502) was synthesised in a codon-optimised form for recombinant expression in Escherichia coli. The successful expression construct encoded the N-terminal region of hOGA, comprising amino acids 11–396, and the C-terminal region, comprising amino acids 535–715. The N-terminal construct was cloned in the vector pACYC-Duet (Millipore) using the sequence and ligation-independent cloning method in frame with an N-terminal His6 tag. The C-terminal construct was cloned into the vector pET-YSBLIC3C27 with an N-terminal His6 tag followed by a 3 C-protease cleavage site using the same method. The nucleotide sequences of all made constructs were confirmed by sequencing. Both vectors were simultaneously transformed into E. coli Bl21(DE3)-Gold (Agilent) for subsequent protein expression. Cells were grown in 2 L TB-medium to an OD600 of ∼1.0 and protein synthesis was then induced by adding IPTG to a final concentration of 0.1 mM. Protein expression was carried out at 16 °C with an induction time of 20 h. The cells were harvested by centrifugation at 4,500 × g for 20 min, flash frozen and stored at −20 °C until required. For purification of the hOGA complex, cells were resuspended in 50 mM HEPES pH 7.0, 750 mM NaCl, 20 mM imidazole, and 0.5 mM DTT (resuspension buffer). Cells were lysed using a French Press at 25 kPsi. The lysate was cleared by centrifugation at 50,000 g for 1 h, and the supernatant was passed through a 10 ml HisTrap FF column (GE Healthcare) pre-equilibrated with resuspension buffer. The bound hOGA was purified by gradient elution over 10 column volumes using 0% to 50% of elution buffer (50 mM HEPES pH 7.0, 750 mM NaCl, 500 mM imidazole and 0.5 mM DTT). hOGA-containing fractions were combined, concentrated by ultrafiltration using Vivaspin columns (Sartorius) with a molecular weight cut-off (MWCO) of 30 kDa, and applied to a Superdex S200 column (GE Healthcare) pre-equilibrated with size-exclusion buffer (10 mM HEPES pH 7.0, 250 mM NaCl, 1 mM DTT). Fractions corresponding to the dimeric form of hOGA were combined and concentrated to 20 mg/mL by ultrafiltration with a Vivaspin (MWCO: 30 kDa) column, flash frozen using liquid nitrogen, and stored at −80 °C until required.
Inhibition assays were run at 0.2 nM [hOGA] in the same buffer, in the presence or absence of various concentrations of inhibitors and at a fixed substrate concentration of 25 µM and 1% DMSO. First, inhibitor was serially diluted to the desired range of concentrations in 2% DMSO buffer. Next, 50 µL of inhibitor solutions at various concentrations in 2% DMSO Buffer was added to 50 μl of 0.8 nM enzyme and allowed to incubate at 25 °C for 5 min. 100 µL of 50 µM and 1% DMSO substrate was then added and reaction mixture was immediately mixed and aliquoted in 45 µL triplicates to a CORNING 384 well black plate. Fluorescence signal was measured continuously for 20 min at 37 °C in a BioTek Neo 2 Plate reader set at excitation and emission wavelengths of 572 and 610 nm, respectively. Max reaction rates for all inhibitor concentrations were calculated within Gen5 BioTek reader software. % Activity was subsequently calculated for each inhibitor concentration against the max reaction rate of uninhibited hOGA.

[2] = molecular target: β-hexosaminidase from Jack bean; assay: Commercial enzyme inhibition assay, β-hexosaminidase from Jack bean; conditions: mean ± SD (n = 3); competitive
Method: (§1) Inhibition constant (Ki) values were determined by spectrophotometrically measuring the residual hydrolytic activities of the glycosidases against the respective o- (for β-galactosidase from E. coli) or p-nitrophenyl α- or β-D-glycopyranoside (for other glycosidases) in the presence of the iminosugars. Each assay was performed in phosphate buffer or phosphate-citrate buffer (for α- or β-mannosidase, amyloglucosidase or β-N-acetylglucosaminidase) at the optimal pH for the enzymes. The reactions were initiated by addition of the enzyme to a solution of the substrate in the absence or presence of various inhibitor concentrations. The mixture was incubated for 10–30 min at 37 °C or 55 °C (for amyloglucosidase) and the reaction was quenched by addition of 1 m Na2CO3. Reaction times were appropriate to obtain 10%–20% conversion of the substrate in order to achieve linear rates. The absorbance of the resulting mixture was determined at 405 nm. Approximate values of Ki were determined using a fixed concentration of substrate (around the KM value for the different glycosidases) and various inhibitor concentrations. Full Ki determinations and the enzyme inhibition mode were determined from the slope of Lineweaver-Burk plots and double reciprocal analysis.

[3] = molecular target: β-hexosaminidase from human placenta; assay: Commercial enzyme inhibition assay, β-hexosaminidase from human placenta; conditions: mean ± SD (n = 3); competitive
Method: as §1

| SMILES | Ki [1] | Ki [2] | Ki [3] | IC50 ([1]; read-out: IC50 against OGA) |
| --- | --- | --- | --- | --- |
| CCCCNC(=S)N1C[C@H](NC(C)=O)[C@@H](O)[C@@H](O)[C@H]1CO [Compound 1, 2-Acetamido-1,2-dideoxy-5-N-(N’-butylthiocarbamoyl)galactonojirimycin] | > 100000 nM | 3000 ± 100 nM | 4800 ± 200 nM | – |
| CCCCCCCCNC(=S)N1C[C@H](NC(C)=O)[C@@H](O)[C@@H](O)[C@H]1CO [Compound 2, 2-Acetamido-1,2-dideoxy-5-N-(N’-octylthiocarbamoyl)galactonojirimycin] | > 100000 nM | 7200 ± 200 nM | 3000 ± 100 nM | – |
| CC(=O)N[C@H]1CN(C(=S)NCc2ccccc2)[C@H](CO)[C@H](O)[C@@H]1O [Compound 3, 2-Acetamido-1,2-dideoxy-5-N-(N’-benzylthiocarbamoyl)galactonojirimycin] | > 100000 nM | 5100 ± 200 nM | 16000 ± 500 nM | – |
| CC(=O)N[C@H]1CN(C(=S)Nc2ccccc2)[C@H](CO)[C@H](O)[C@@H]1O [Compound 4, 2-Acetamido-1,2-dideoxy-5-N-(N’-phenylthiocarbamoyl)galactonojirimycin] | > 100000 nM | 65 nM | 240 nM | – |
| CCCCN=C1SCC2C(O)C(O)C(NC(C)=O)CN12 (stereo not drawn) [Compound 5, 2-Acetamido-1,2-dideoxy-5-N,6-S-(N’-butyliminomethylidene)-6-thiogalactonojirimycin] | > 100000 nM | 140 ± 10 nM | 55 ± 2 nM | – |
| CCCCCCCCN=C1SCC2C(O)C(O)C(NC(C)=O)CN12 (stereo not drawn) [Compound 6, 2-Acetamido-1,2-dideoxy-5-N,6-S-(N’-octyliminomethylidene)-6-thiogalactonojirimycin] | > 100000 nM | 48 ± 2 nM | 26 ± 1 nM | – |
| CC(=O)NC1CN2C(=NCc3ccccc3)SCC2C(O)C1O (stereo not drawn) [Compound 7, 2-Acetamido-1,2-dideoxy-5-N,6-S-(N’-benzyliminomethylidene)-6-thiogalactonojirimycin] | 25000 nM | 88 ± 3 nM | 26 ± 1 nM | 25000 nM |
| CC(=O)NC1CN2C(=Nc3ccccc3)SCC2C(O)C1O (stereo not drawn) [Compound 8, 2-Acetamido-1,2-dideoxy-5-N,6-S-(N’-phenyliminomethylidene)-6-thiogalactonojirimycin] | > 100000 nM | 130 ± 10 nM | 44 ± 2 nM | – |
